Experimental data taken from patent publication US20210380548A1, “Fused [1,2,4]Thiadiazine Derivatives Which Act as KAT Inhibitors of the MYST Family” (CTxT Pty Limited, priority 2017, published 2021).

Experiments:
[1] = biological target: T1, TIP60-KAT5 (Homo sapiens, UniProt Q92993); test: Acetyltransferase biochemical assay (AlphaScreen), KAT5; details: Table 1 (TIP60-KAT5); 0.4 μM Acetyl coenzyme A, histone H4, 10 nM enzyme
T1 construct: encoding amino acid residues 2 to 461 (Uniprot Q92993-2) of human KAT5 isoform; made in house; host or cells: E. coli BL21 DE3
T1 sequence (Q92993 2-461 isoform Q92993-2): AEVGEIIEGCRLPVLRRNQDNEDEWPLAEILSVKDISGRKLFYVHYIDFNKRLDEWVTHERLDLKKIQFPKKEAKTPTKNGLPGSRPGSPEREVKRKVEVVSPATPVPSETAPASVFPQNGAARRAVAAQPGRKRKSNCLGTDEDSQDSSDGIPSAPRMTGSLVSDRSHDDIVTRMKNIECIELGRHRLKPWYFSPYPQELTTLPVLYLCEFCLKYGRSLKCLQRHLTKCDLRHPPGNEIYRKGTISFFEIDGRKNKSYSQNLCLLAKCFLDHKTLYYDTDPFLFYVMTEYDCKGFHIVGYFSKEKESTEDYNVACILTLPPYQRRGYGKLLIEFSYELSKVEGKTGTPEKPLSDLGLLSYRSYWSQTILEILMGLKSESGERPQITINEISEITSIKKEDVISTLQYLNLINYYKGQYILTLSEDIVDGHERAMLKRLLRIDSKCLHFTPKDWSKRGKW

[2] = biological target: T2, MOZ-KAT6A (Homo sapiens, UniProt Q92794, A567V); test: Acetyltransferase biochemical assay (AlphaScreen), KAT6A; details: Table 2 (MOZ-KAT6A); 10 μM Acetyl coenzyme A, histone H3.1, 5 nM enzyme
T2 construct: encoding amino acid residues 507 to 778 (Uniprot Q92794-1) of human KAT6A; made in house; host or cells: E. coli BL21 DE3
T2 sequence (Q92794 507-778 A567V limits assumed): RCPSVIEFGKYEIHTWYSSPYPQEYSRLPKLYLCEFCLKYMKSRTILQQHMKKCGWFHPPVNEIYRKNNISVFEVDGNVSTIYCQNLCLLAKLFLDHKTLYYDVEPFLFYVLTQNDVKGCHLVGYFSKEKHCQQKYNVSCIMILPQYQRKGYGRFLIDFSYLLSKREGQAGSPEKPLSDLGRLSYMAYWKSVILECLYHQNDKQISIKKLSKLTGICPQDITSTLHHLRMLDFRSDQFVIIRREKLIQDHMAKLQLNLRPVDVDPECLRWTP

[3] = biological target: T3, HBO-KAT7 (Homo sapiens, UniProt O95251); test: Acetyltransferase biochemical assay (AlphaScreen), KAT7; details: Table 3 (HBO-KAT7); 0.4 μM Acetyl coenzyme A, histone H3.1, 40 nM enzyme
T3 construct: encoding amino acid residues 325 to 611 (Uniprot 095251-1) of human KAT7; made in house; host or cells: E. coli BL21 DE3 RIL
T3 sequence (O95251 with tags, fused parts or gaps): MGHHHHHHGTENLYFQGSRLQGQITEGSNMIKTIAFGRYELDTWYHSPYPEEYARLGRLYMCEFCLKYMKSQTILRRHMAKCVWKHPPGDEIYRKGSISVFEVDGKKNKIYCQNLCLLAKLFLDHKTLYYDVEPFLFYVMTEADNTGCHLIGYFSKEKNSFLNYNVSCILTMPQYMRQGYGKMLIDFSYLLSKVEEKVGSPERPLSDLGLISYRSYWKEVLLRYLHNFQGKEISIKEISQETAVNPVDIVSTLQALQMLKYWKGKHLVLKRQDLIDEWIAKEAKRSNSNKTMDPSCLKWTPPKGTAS

[4] = biological target: T4, MOF-KAT8 (Homo sapiens, UniProt Q9H7Z6); test: Acetyltransferase biochemical assay (AlphaScreen), KAT8; details: Table 4 (MOF-KAT8); 0.4 μM Acetyl coenzyme A, histone H4, 20 nM enzyme
T4 sequence (Q9H7Z6 177-447): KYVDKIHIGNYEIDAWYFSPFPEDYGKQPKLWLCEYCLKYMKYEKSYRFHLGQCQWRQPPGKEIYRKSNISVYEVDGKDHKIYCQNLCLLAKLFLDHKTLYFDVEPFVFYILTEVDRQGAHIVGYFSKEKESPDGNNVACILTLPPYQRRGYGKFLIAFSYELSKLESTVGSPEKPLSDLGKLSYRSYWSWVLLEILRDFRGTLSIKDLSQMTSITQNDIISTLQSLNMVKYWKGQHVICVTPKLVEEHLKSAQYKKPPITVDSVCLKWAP

[5] = biological target: T2, MOZ-KAT6A; test: Revised Acetyltransferase Biochemical Assay, KAT6A; details: Table 8 (MOZ-KAT6A), 1 μM Acetyl coenzyme A
[6] = biological target: T1, TIP60-KAT5; test: Revised Acetyltransferase Biochemical Assay, KAT5; details: 10 nM KAT5, 1 μM AcCoA, 100 nM histone H4, 90 min
[7] = biological target: T3, HBO-KAT7; test: Revised Acetyltransferase Biochemical Assay, KAT7; details: Table 9 (HBO-KAT7), 1 μM Acetyl coenzyme A
[8] = biological target: T4, MOF-KAT8; test: Revised Acetyltransferase Biochemical Assay, KAT8
[9] = tested on: histone H2A.Z Lysine 7 acetylation (TIP60 mediated) in U2OS cells; test: H2A.Z Lysine 7 Acetylation Biomarker Assay (384-well, U2OS); assay type: cell-based; details: Homo sapiens, serum free medium, 24 hours incubation
Procedure: Compounds may be tested for their ability to inhibit the histone H2A.Z Lysine 7 acetylation marker (which is TIP60 mediated) in the following assay:
The cell line U2OS was seeded at a density of 3,000 cells per well in 384-well optical quality tissue culture plates in RPMI medium supplemented with 10% foetal bovine serum and 10 mM Hepes. The cells were allowed to adhere for 24 hours under standard culture conditions (37 degree Celsius, 5% CO2). At the end of this period the cells were washed with serum free medium. […] After incubation for 24 hours, the cells were fixed with 4% formaldehyde in PBS for 15 minutes at room temperature, washed with phosphate buffer saline and blocked with blocking buffer containing 0.2% TritonX100 and 2% BSA. Anti-H2A.ZK7ac specific antibody (Abcam) in blocking buffer was added and incubated overnight at 4 degree Celsius. After washing, a secondary antibody labelled with AlexaFluor 488 dye (ThermoFisher) and Hoechst 33342 (1 μg/mL, Life Technologies) were added for 2 hours incubation at room temperature. Plates were washed and read on a PerkinElmer Opera HCS high content imaging platform. Using a Columbus image analysis pipeline, individual nuclei were located by Hoechst 33342 stain and the acetylation level was calculated from the AlexaFluor 488-related intensity in the same area. The resulting mean intensity per cell was converted to percent inhibition relative to controls on the same plate and the data fitted against a four-parameter logistic model to determine the 50% inhibitory concentration (IC50).

Row | SMILES | IC50 [1] [µM] | IC50 [2] [µM] | IC50 [3] [µM] | IC50 [4] [µM] | IC50 [5] [µM] | IC50 [6] [µM] | IC50 [7] [µM] | IC50 [8] [µM] | IC50 [9] [µM]
1 | O=C(NCCc1ccccc1-c1ncco1)C1=Nc2ccccc2S(=O)(=O)N1 [Example 7, N-(2-(Oxazol-2-yl)phenethyl)-2H-benzo[e][1,2,4]thiadiazine-3-carboxamide1,1-dioxide] | 11.7 | 2.8 | 11.9 | > 125 | 0.316 | 5.92 | 1.18 | 81.6 | –
2 | O=C(NCC(c1ccccc1)c1ncco1)C1=Nc2ccc(C(=O)O)cc2S(=O)(=O)N1 (stereo not drawn) [Example 24, 3-((2-(Oxazol-2-yl)-2-phenylethyl)carbamoyl)-2H-benzo[e][1,2,4]thiadiazine-7-carboxylic Acid 1,1-dioxide] | 7.16 | 0.127 | 0.141 | 69.6 | 0.11 | 5.4 | 0.583 | – | –
3 | O=C(NCC(c1ccccc1)n1cccn1)C1=Nc2ccccc2S(=O)(=O)N1 (stereo not drawn) [Example 75] | 56.6 | 1.72 | – | – | 0.308 | 14.1 | 1.15 | > 125 | –
4 | O=C(NCCc1ccccc1)C1=Nc2ccc(Br)cc2S(=O)(=O)N1 [Example 78] | 16.7 | 3.74 | 4.56 | – | 0.203 | 4.54 | 3.53 | > 125 | –
5 | O=C(NCC(O)c1ccccc1)C1=Nc2ccc(Br)cc2S(=O)(=O)N1 (stereo not drawn) [Example 82] | 7.82 | 9.19 | – | > 125 | – | – | – | – | –
6 | O=C(NCC(O)c1ccccc1)C1=Nc2ccc(I)cc2S(=O)(=O)N1 (stereo not drawn) [Example 87] | 4.47 | 8.93 | 12 | 114 | – | – | – | – | –
7 | COC(CNC(=O)C1=Nc2ccc(I)cc2S(=O)(=O)N1)c1ccccc1 (stereo not drawn) [Example 88] | 1.19 | – | 0.659 | 47 | – | – | – | – | –
8 | O=C(NCC(c1ccccc1)c1ncco1)C1=Nc2cccnc2S(=O)(=O)N1 (stereo not drawn) [Example 96] | 94.7 | 1.17 | 3.17 | – | 0.149 | 13.3 | 1.11 | > 125 | –
9 | O=C(NCCc1ccccc1OC(F)(F)F)C1=Nc2ccc(Br)cc2S(=O)(=O)N1 [Example 114] | 0.954 | 0.861 | 0.529 | > 125 | – | – | – | – | –
10 | O=C(NCCc1ccccc1O)C1=Nc2ccc(Br)cc2S(=O)(=O)N1 [Example 116] | 4.44 | 2.26 | – | 56.7 | – | – | – | – | –
11 | Cc1ccc(C(CNC(=O)C2=Nc3ccc(Cl)cc3S(=O)(=O)N2)c2ncco2)cc1 (stereo not drawn) [Example 170] | – | – | – | 3.75 | 0.143 | 13.3 | 1.63 | > 125 | –
12 | O=C(NCC(c1ncco1)c1ccccc1I)C1=Nc2ccccc2S(=O)(=O)N1 (stereo not drawn) [Example 174, N-(2-(2-iodophenyl)-2-(oxazol-2-yl)ethyl)-2H-benzo[e][1,2,4]thiadiazine-3-carboxamide 1,1-dioxide] | – | – | 7.49 | > 125 | 0.573 | 15.3 | 4.15 | – | –
13 | N#Cc1ccccc1C(CNC(=O)C1=Nc2ccccc2S(=O)(=O)N1)c1ncco1 (stereo not drawn) [Example 218, N-(2-(2-Cyanophenyl)-2-(oxazol-2-yl)ethyl)-2H-benzo[e][1,2,4]thiadiazine-3-carboxamide 1,1-dioxide] | – | – | – | > 125 | 0.153 | 16.8 | 9.41 | > 125 | –
14 | COC(=O)c1ccccc1C(CNC(=O)C1=Nc2ccccc2S(=O)(=O)N1)c1ncco1 (stereo not drawn) [Example 219, Methyl 2-(2-(1,1-dioxido-2H-benzo[e][1,2,4]thiadiazine-3-carboxamido)-1-(oxazol-2-yl)ethyl)benzoate] | – | – | – | > 125 | 3.59 | > 125 | 105 | > 125 | –
15 | COC(=O)NC(CNC(=O)C1=Nc2ccccc2S(=O)(=O)N1)C1CCCCC1 (stereo not drawn) [Example 243, methyl (1-cyclohexyl-2-(1,1-dioxido-2H-benzo[e][1,2,4]thiadiazine-3-carboxamido)ethyl)carbamate] | – | – | – | 82.5 | 12.3 | 39.9 | 77.3 | – | –

Further lines, results first:

Row | IC50 [1] [µM] | IC50 [2] [µM] | IC50 [3] [µM] | IC50 [4] [µM] | IC50 [5] [µM] | IC50 [6] [µM] | IC50 [7] [µM] | IC50 [8] [µM] | IC50 [9] [µM] | SMILES
16 | 1.17 | 0.667 | 2.04 | 27.7 | 0.069 | 0.493 | – | – | – | O=C(NCC(c1ccccc1)c1ncco1)C1=Nc2ccc(OC(F)(F)F)cc2S(=O)(=O)N1 (stereo not drawn) [Example 5, N-(2-(Oxazol-2-yl)-2-phenylethyl)-7-(trifluoromethoxy)-2H-benzo[e][1,2,4]thiadiazine-3-carboxamide 1,1-dioxide]
17 | 6.95 | 0.126 | 6.78 | 89.6 | 0.047 | 3.78 | 0.551 | > 125 | – | CN(C)C(=O)c1ccc2c(c1)S(=O)(=O)NC(C(=O)NCC(c1ccccc1)c1ncco1)=N2 (stereo not drawn) [Example 33, N^7,N^7-Dimethyl-N^3-(2-(oxazol-2-yl)-2-phenylethyl)-2H-benzo[e][1,2,4]thiadiazine-3,7-dicarboxamide 1,1-dioxide]
18 | 2.39 | 0.243 | 1.99 | – | 0.014 | 0.266 | 0.086 | 71.6 | – | CC(=O)c1ccc2c(c1)S(=O)(=O)NC(C(=O)NCC(c1ccccc1)c1ncco1)=N2 (stereo not drawn) [Example 43, 7-acetyl-N-(2-(oxazol-2-yl)-2-phenylethyl)-2H-benzo[e][1,2,4]thiadiazine-3-carboxamide 1,1-dioxide]
19 | 14.5 | 3.81 | 0.462 | – | 0.108 | 7.21 | 0.601 | 16.5 | – | O=C(NCC(c1ccccc1)c1ccccc1)C1=Nc2ccccc2S(=O)(=O)N1 [Example 68]
20 | 1.17 | 2.7 | 1.33 | 39.4 | 0.096 | 0.521 | 0.787 | 42.4 | – | COc1ccccc1CCNC(=O)C1=Nc2ccc(I)cc2S(=O)(=O)N1 [Example 86]
21 | 2.17 | 0.149 | 3.32 | – | 0.024 | 0.648 | 0.72 | 15.7 | – | O=C(NCC(c1ccccc1)c1ncco1)C1=Nc2ccc(-c3nccs3)cc2S(=O)(=O)N1 (stereo not drawn) [Example 134]
22 | – | – | – | 43.1 | 0.031 | 6.02 | 1.77 | > 125 | – | O=C(NCC(c1ccc(F)cc1)c1ncco1)C1=Nc2ccc(Cl)cc2S(=O)(=O)N1 (stereo not drawn) [Example 165]
23 | – | – | 0.051 | 39.1 | 0.011 | 0.651 | 0.161 | 30.4 | – | O=C(NCC(c1ccccc1)c1ccccn1)C1=Nc2ccc(Br)cc2S(=O)(=O)N1 (stereo not drawn) [Example 173]
24 | – | – | – | – | 0.043 | 0.919 | 0.243 | – | > 40 | CS(=O)(=O)c1ccc2c(c1)S(=O)(=O)NC(C(=O)NCC(c1ccccc1)c1ncco1)=N2 (stereo not drawn) [Example 191]
25 | – | – | – | – | 0.082 | 1.01 | 0.948 | – | > 40 | O=C(NCCc1ccccc1-n1ccnn1)C1=Nc2ccc(I)cc2S(=O)(=O)N1 [Example 241, N-(2-(1H-1,2,3-triazol-1-yl)phenethyl)-7-iodo-2H-benzo[e][1,2,4]thiadiazine-3-carboxamide 1,1-dioxide]
